Results taken from US7524980B2, “Vitamin D3 lactam derivative” (Teijin Pharma Limited, priority 2003, dated 2009).

Tested on: HL-60 cell
Assay: Vitamin D3 antagonist effect: suppression of HL-60 cell differentiation (NBT-reducing activity) induced by 1α,25-dihydroxyvitamin D3
Format: cell-based
Settings: simultaneous treatment with 1α,25-dihydroxyvitamin D3 1×10^−8 M; compound 1×10^−7 to 3×10^−6 M; 4 days; read-out: IC50 (suppression of NBT-reducing activity induction)
From the text: (1) HL-60 cell line which had been purchased from a cell bank (Japanese Cancer Research Resource Bank, Cell No: JCRB0085) was used. The cell line was stored as a frozen storage stock to prevent cell characteristic changes attributable to successive cultivations. Prior to the initiation of experiments, the cells were defrosted and successive culturing was stared. For the experiments, cells whose successive culturing was from one month to about a half year were used. The successive culturing was carried out by centrifugally collecting cells which were in the state of suspension culture, and diluting the collected cell concentrate with a fresh culture medium at a ratio of about 1/100 (1-2×10^4 cells/ml). As the culture medium, an RPMI-1640 medium containing 10% fetal bovine serum was used.
(2) The cells which were under successive culturing in the above process (1) were centrifugally collected, and they were dispersed in a culture medium at the cell concentration of 2×10^4 cells/ml. […]
(3) As the parameter of differentiation inducing effect on HL-60 cells, the induction of nitro blue tetrazolium (henceforth, NBT)-reducing activity was used. The NBT-reducing activity was determined according to the following procedure. […] After air drying, it was stained with Kernechrot, and the ratio of the positive cells of NBT reduction activity was determined under an optical microscope. […]

IC50: < 100 nM
SMILES: C=C1C(=CC=C2CCCC3(C)C2CCC3C(C)CC2CC(C)(O)C(=O)N2CCc2ccccc2)CC(O)CC1O (stereo not drawn) [Compound No. 61a, 1α,25-dihydroxyvitamin D3-26,23-lactam-N-(2-phenethyl)]
